Laboratory results published in US20230257396A1, “MACROCYCLES AND THEIR USE” (BLOSSOMHILL THERAPEUTICS, INC., priority 2020, published 2023).

Assays:
kinases [1] = molecular target: T1, kinases (Homo sapiens, UniProt P00533, T790M); assay: KINOMEscan kinase binding assay (Eurofins/DiscoveRx), % Ctrl; details: 1 μM
T1 construct: purchased Eurofins/DiscoveRx; host or cells: E. coli BL21-derived host (T7 phage display) for most kinases; HEK-293 for the rest
In short: (§1)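 Competition binding: DNA- or phage-tagged kinases (T7 phage in E. coli BL21, or HEK-293-expressed) with immobilized biotinylated ligand beads and test compound, 1 h at room temperature. Bead-bound kinase eluted and quantified by qPCR; % Ctrl = (compound − positive control)/(negative control − positive control) ×100 at a single compound concentration.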

kinases [2] = molecular target: T2, kinases (Homo sapiens, UniProt P36888, D835V); assay: as above; details: 1 μM
T2 construct: purchased Eurofins/DiscoveRx; host or cells: E. coli BL21-derived host (T7 phage display) for most kinases; HEK-293 for the rest
T2 sequence (P36888 27-993 D835V): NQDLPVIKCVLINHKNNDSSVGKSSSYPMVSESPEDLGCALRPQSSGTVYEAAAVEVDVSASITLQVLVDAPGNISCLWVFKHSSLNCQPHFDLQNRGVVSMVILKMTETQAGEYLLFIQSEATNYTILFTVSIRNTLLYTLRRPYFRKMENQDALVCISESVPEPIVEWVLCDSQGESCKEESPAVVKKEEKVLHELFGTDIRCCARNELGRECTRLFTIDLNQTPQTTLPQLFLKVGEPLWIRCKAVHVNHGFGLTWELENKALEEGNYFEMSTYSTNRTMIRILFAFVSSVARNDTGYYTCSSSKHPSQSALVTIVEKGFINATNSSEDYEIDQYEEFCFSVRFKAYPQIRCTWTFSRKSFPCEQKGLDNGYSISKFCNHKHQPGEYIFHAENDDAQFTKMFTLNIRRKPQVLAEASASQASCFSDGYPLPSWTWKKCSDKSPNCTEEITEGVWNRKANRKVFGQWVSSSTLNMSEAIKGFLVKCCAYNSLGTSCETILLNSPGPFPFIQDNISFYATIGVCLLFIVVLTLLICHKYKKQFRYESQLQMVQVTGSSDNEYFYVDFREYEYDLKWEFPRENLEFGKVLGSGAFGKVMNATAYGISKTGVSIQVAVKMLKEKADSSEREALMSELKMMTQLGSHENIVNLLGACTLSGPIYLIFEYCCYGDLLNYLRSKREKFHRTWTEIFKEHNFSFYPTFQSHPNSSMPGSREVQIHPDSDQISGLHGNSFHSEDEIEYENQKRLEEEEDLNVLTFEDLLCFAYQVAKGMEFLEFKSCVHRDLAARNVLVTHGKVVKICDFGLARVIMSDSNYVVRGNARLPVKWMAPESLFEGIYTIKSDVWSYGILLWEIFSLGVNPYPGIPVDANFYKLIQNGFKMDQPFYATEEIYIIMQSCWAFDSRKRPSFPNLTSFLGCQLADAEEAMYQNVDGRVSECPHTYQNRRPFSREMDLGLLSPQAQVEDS
In short: as §1

| Structure (SMILES) | % Ctrl, EGFR(T790M) (kinases [1]; EGFR(T790M)) | % Ctrl, FLT3(D835V) (kinases [2]; FLT3(D835V)) | % Ctrl, EGFR(T790M) (kinases [1]; target EGFR(T790M)) | % Ctrl, FLT3(D835V) (kinases [2]; target FLT3(D835V)) |
| --- | --- | --- | --- | --- |
| Cc1cc2c([nH]1)/C=C1\C(=O)Nc3ccc(nc31)-c1ccccc1OCCCNC2=O [Ex.22, [3a(4)Z]-6-methyl-9,10,11,12-tetrahydro-1,18-(ethanediylidene)dipyrrolo[3,2-g:3′,4′-j][1,5,12]benzoxadiazacyclopentadecine-3,8(2H,5H)-dione] | 57 % Ctrl | 35 % Ctrl | – | – |
| Cc1cc2c([nH]1)/C=C1\C(=O)Nc3ccc(cc31)-c1ccnn1CCOCCNC2=O [Ex.39, [19a(20)Z]-2-methyl-6,7,9,10-tetrahydro-1H-15,17-(ethanediylidene)pyrazolo[1,5-d]dipyrrolo[3,4-h:2′,3′-k][1,4,14]oxadiazacyclohexadecine-4,19(5H,18H)-dione] | 99 % Ctrl | 35 % Ctrl | – | – |
| Cc1cc2c([nH]1)/C=C1\C(=O)Nc3cnc(nc31)N(C)CCCOCCN(C)C2=O [Ex.71, [17a(18)Z]-2,5,12-trimethyl-6,7,9,10,11,12-hexahydro-1H-13,15-(azenometheno)dipyrrolo[3,2-f:3′,4′-i][1,4,11,13]oxatriazacyclohexadecine-4,17(5H,16H)-dione] | 100 % Ctrl | 100 % Ctrl | – | – |
| Cc1cc2c([nH]1)/C=C1\C(=O)Nc3ccc(cc31)OCCOCCN(C)C2=O [Ex.91, [16a(17)Z]-2,5-dimethyl-6,7,9,10-tetrahydro-1H-12,14-(ethanediylidene)dipyrrolo[3,2-i:3′,4′-l][1,4,7]dioxazacyclopentadecine-4,16(5H,15H)-dione] | 82 % Ctrl | 0.05 % Ctrl | – | – |
| Cc1cc2c([nH]1)/C=C1\C(=O)Nc3ccc(cc31)CN(C)C(=O)COCCNC2=O [Ex.111, [17a(18)Z]-2,11-dimethyl-6,7,11,12-tetrahydro-1H-13,15-(ethanediylidene)dipyrrolo[3,2-f:3′,4′-i][1,4,14]oxadiazacyclohexadecine-4,10,17(5H,9H,16H)-trione] | 68 % Ctrl | 1.5 % Ctrl | – | – |
| Cc1cc2c([nH]1)/C=C1\C(=O)Nc3cnc(cc31)-c1cnn(C)c1COCCNC2=O [Ex.123, [3a(4)Z]-6,14-dimethyl-10,11,13,14-tetrahydro-2H-17,1-(azenometheno)pyrazolo[4,3-m]dipyrrolo[3,2-f:3′,4′-i][1,4]oxazacyclopentadecine-3,8(5H,9H)-dione] | 100 % Ctrl | 91 % Ctrl | – | – |
| Cc1cc2c([nH]1)/C=C1\C(=O)Nc3ccc(cc31)-c1ccnn1CCOCCN(C)C2=O [Ex. 41, [19a(20)Z]-2,5-dimethyl-6,7,9,10-tetrahydro-1H-15,17-(ethanediylidene)pyrazolo[1,5-d]dipyrrolo[3,4-h:2′,3′-k][1,4,14]oxadiazacyclohexadecine-4,19(5H,18H)-dione] | 36 % Ctrl | 0.25 % Ctrl | – | – |
| Cc1cc2c([nH]1)/C=C1\C(=O)Nc3ccc(cc31)-c1ccnn1CCNCCNC2=O [Ex. 43, [19a(20)Z]-2-methyl-5,6,7,8,9,10-hexahydro-15,17-(ethanediylidene)pyrazolo[1,5-g]dipyrrolo[3,4-k:2′,3′-n][1,4,7]triazacyclohexadecine-4,19(1H,18H)-dione] | 100 % Ctrl | 27 % Ctrl | – | – |
| Cc1cc2c([nH]1)/C=C1\C(=O)Nc3cnc(cc31)-c1cn[nH]c1CNCCN(C)C2=O [Ex. 55, [3a(4)Z]-6,9-dimethyl-9,10,11,12,13,14-hexahydro-17,1-(azenometheno)pyrazolo[4,3-m]dipyrrolo[3,2-f:3′,4′-i][1,4]diazacyclopentadecine-3,8(2,5H)-dione] | – | – | 70 % Ctrl | 1.1 % Ctrl |
| Cc1cc2c([nH]1)/C=C1\C(=O)Nc3ccc(cc31)O[C@@H](C)COCCN(C)C2=O [Ex. 92, [10S,16a(17)Z]-2,5,10-trimethyl-6,7,9,10-tetrahydro-1H-12,14-(ethanediylidene)dipyrrolo[3,2-i:3′,4′-l][1,4,7]dioxazacyclopentadecine-4,16(5H,15H)-dione] | 100 % Ctrl | 3.7 % Ctrl | – | – |
| Cc1cc2c([nH]1)/C=C1\C(=O)Nc3ccc(cc31)-c1cnn(C)c1COCCN(C)C2=O [Ex. 124, [3a(4)Z]-6,9,14-trimethyl-10,11,13,14-tetrahydro-2H-1,17-(ethanediylidene)pyrazolo[4,3-m]dipyrrolo[3,2-f:3′,4′-i][1,4]oxazacyclopentadecine-3,8(5H,9H)-dione] | 8.5 % Ctrl | 0 % Ctrl | – | – |
| Cc1cc2c([nH]1)/C=C1\C(=O)Nc3ccc(cc31)-c1cnn(C)c1CNCCN(C)C2=O [Ex. 125, [3a(4)Z]-6,9,14-trimethyl-9,10,11,12,13,14-hexahydro-1,17-(ethanediylidene)pyrazolo[4,3-m]dipyrrolo[3,2-f:3′,4′-i][1,4]diazacyclopentadecine-3,8(2H,5H)-dione] | 11 % Ctrl | 0.25 % Ctrl | – | – |
| Cc1cc2c([nH]1)/C=C1\C(=O)Nc3ccc(cc31)-c1cnn(C)c1CN(C)CCN(C)C2=O [Ex. 126, [3a(4)Z]-6,9,12,14-tetramethyl-9,10,11,12,13,14-hexahydro-1,17-(ethanediylidene)pyrazolo[4,3-m]dipyrrolo[3,2-f:3′,4′-i][1,4]diazacyclopentadecine-3,8(2H,5H)-dione] | 1.6 % Ctrl | 0 % Ctrl | – | – |
| Cc1cc2c([nH]1)/C=C1\C(=O)Nc3ccc(cc31)-c1c(C)n[nH]c1CNCCN(C)C2=O [Ex. 127, [3a(4)Z]-6,9,16-trimethyl-9,10,11,12,13,14-hexahydro-1,17-(ethanediylidene)pyrazolo[4,3-m]dipyrrolo[3,2-f:3′,4′-i][1,4]diazacyclopentadecine-3,8(2H,5H)-dione] | 9.2 % Ctrl | 0.15 % Ctrl | – | – |
| Cc1cc2c([nH]1)/C=C1\C(=O)Nc3ccc(cc31)-c1c(noc1C)COCCN(C)C2=O [Ex. 128, [3a(4)Z]-6,9,16-trimethyl-1,11-dihydro-2H,13H-1,17-(ethanediylidene)[1,4]oxazolo[4,3-m]dipyrrolo[3,2-f:3′,4′-i][1,4]oxazacyclopentadecine-3,8(5H,9H)-dione] | 75 % Ctrl | 1.7 % Ctrl | – | – |
| Cc1cc2c([nH]1)/C=C1\C(=O)Nc3ccc(cc31)OCCOCCNC2=O [Ex. 129, [16a(17)Z]-2-methyl-6,7,9,10-tetrahydro-1H-12,14-(ethanediylidene)dipyrrolo[3,2-i:3′,4′-l][1,4,7]dioxazacyclopentadecine-4,16(5H,15H)-dione] | 100 % Ctrl | 17 % Ctrl | – | – |
| Cc1cc2c([nH]1)/C=C1\C(=O)Nc3cc(Cl)c(cc31)OCCOCCN(C)C2=O [Ex. 131, [16a(17)Z]-19-chloro-2,5-dimethyl-6,7,9,10-tetrahydro-1H-12,14-(ethanediylidene)dipyrrolo[3,2-i:3′,4′-l][1,4,7]dioxazacyclopentadecine-4,16(5H,15H)-dione] | 61 % Ctrl | 0 % Ctrl | – | – |
| Cc1cc2c([nH]1)/C=C1\C(=O)Nc3cc(Cl)c(cc31)OCCO[C@@H](C(=O)NC1CNC1)CN(C)C2=O [Ex. 133, [7R,16a(17)Z]-N-(azetidin-3-yl)-19-chloro-2,5-dimethyl-4,16-dioxo-4,5,6,7,9,10,15,16-octahydro-1H-12,14-(ethanediylidene)dipyrrolo[3,2-i:3′,4′-l][1,4,7]dioxazacyclopentadecine-7-carboxamide] | 98 % Ctrl | 2.3 % Ctrl | – | – |
| Cc1cc2c([nH]1)/C=C1\C(=O)Nc3cc(Cl)c(cc31)OCCO[C@@H](C(=O)NC1CCNCC1)CN(C)C2=O [Ex. 134, [7R,16a(17)Z]-19-chloro-2,5-dimethyl-4,16-dioxo-N-(piperidin-4-yl)-4,5,6,7,9,10,15,16-octahydro-1H-12,14-(ethaneidylidene)dipyrrolo[3,2-i:3′,4′-l][1,4,7]dioxazacyclopentadecine-7-carboxamide] | 92 % Ctrl | 3.9 % Ctrl | – | – |
